Data published in US20240009218A1, “COMPOSITIONS AND METHODS USING A COMBINATION OF OLEUROPEIN AND QUERCETIN FOR USE IN CARTILAGE DEGENERATION” (SOCIETE DES PRODUITS NESTLE S.A., priority 2020, published 2024).

Tests used:
Format in all cases: cell-based
[1] = tested on: SW1353 cells; assay: Mitochondrial membrane potential (JC-10 ratio fluorescence 590/525 nm) in SW1353 cells; details: after 24 h of IL-1β vs control
Protocol: To measure mitochondrial membrane potential, SW1353 cells were seeded in 96-well plates at a density of 8000 cells per well in Growth medium (DMEM high glucose, Gibco) with 10% fetal calf serum. Then, cells were loaded with the fluorescent mitochondrial membrane potential sensor JC-10. Fluorescence was acquired with MetaXpress Confocal (Molecular Devices) at following emission wavelengths: 590 nm (excitation at 540 nm) and 525 nm (excitation 490 nm), according to supplier's instructions. The ratio fluorescence at 590 nm/525 nm is proportional to change in the mitochondrial membrane potential.

[2] = tested on: SW1353 cells; assay: Chondrocyte function by western blot (collagen-IIα1, MMP3, MMP13) in SW1353 cells; details: SW1353 cells treated with IL-1β 24 h or 48 h vs control
Protocol: To validate the effect of the pro-inflammatory cytokine Interleukin-1β as an osteoarthritis-mimetic in a chondrocyte cellular model and to test the effect of the mitochondrial calcium uniporter (MCU) ablation on chondrocyte function, the inventors measured chondrocyte function and mitochondrial function in SW1353 cells. SW1353 cells were purchased from ATCC. SW1353 cells were seeded in 96-well plates at a density of 10 000 cells per well […] (for mitochondrial calcium measurement) or at a density of 1 000 000 cells (for western blots). Cells were cultured in […] (DMEM, Gibco), high glucose, with 10% fetal calf serum and 1% Penicillin-Streptomycin.
To assess chondrocyte function, the expression of collagen-IIα1, aggrecan, metalloproteinase-3 and -13 (MMP3 and MMP13), were analyzed by western blotting. SW1353 cells were treated or not with 10 ng/ml Interleukin-1b for 24 h or 48 h. Protein extracts were prepared in an appropriate buffer containing 150 mM NaCl, 1.0% IGEPAL CA-630, 0.5% sodium deoxycholate, 0.1% SDS, 50 mM Tris, pH 8.0, Complete EDTA-free protease inhibitor mixture (Roche), 1 mM PMSF, 1 mM NaVO3, 5 mM NaF and 3 mM β-glycerophosphate and phosphatase inhibitors (Roche). 40 μg of total proteins were loaded, according to BCA quantification. Proteins were separated by SDS-PAGE electrophoresis, in commercial 4-12% acrylamide gels (Thermo Fisher Scientific) and transferred onto PVDF membranes (Thermo Fisher Scientific) by wet electrophoretic transfer. Blots were blocked 1 hour at RT with 5% bovine serum albumin (Sigma-Aldrich) in TBS-tween (0.5M Tris, 1.5M NaCl, 0.01% Tween) solution and incubated overnight at 4° C. with primary antibodies. Secondary antibodies were incubated 1 hr at RT. The following antibodies were used: anti-collagen-II al (1:1000, Abcam), anti-aggrecan (1:1000, Abcam), anti-MMP-3 (1:1000, Abcam), anti-MMP-13 (1:1000, Abcam). […] Then the content collagen-IIα1, aggrecan, MMP3 and MMP13 were quantified with densitometry and normalized on the content of GAPDH (detected with anti-GAPDH, 1:5000, Cell Signaling)

[3] = tested on: SW1353 cells; assay: Cell death, Annexin-V positive cells (IncuCyte) in SW1353 cells; details: after 5 days of IL-1β treatment vs control
Protocol: To quantify the effect of Interleukin-1β on cell death in SW1353 cells, kinetic experiments of apoptosis were performed with the IncuCyte ZOOM instrument (Essen Bioscience, Ann Arbor, MI, USA). Cells were seeded at 50% confluence in 96-well-plate format in DMEM medium. After 24 h, cells were incubated with IncuCyte Annexin-V Green (4642), according to supplier's instructions and treated with IL-1β. Four images per well were collected at the indicated time using a 10× objective and bandwidth filters (Ex: 440/80 nm; Em: 504/44 nm). Data were exported as area (μm2) per well covered by Annexin-V positive objects and normalized for the total area covered by the cells.

[4] = tested on: SW1353 cells; assay: Mitochondrial calcium rise in SW1353 chondrocytes, IL-1β osteoarthritic model (mitochondrial aequorin); details: SW1353 cells treated with IL-1β vs control
Protocol: To test the effect of oleuropein (or oleuropein aglycone), quercetin and their combination in living cells, the inventors measured mitochondrial calcium elevation in HeLa cells. HeLa cells were purchased from ATCC. HeLa cells were seeded in 96-well plates at a density of 50000 cells per well in minimal essential medium (DMEM, Gibco), high glucose, +10% fetal calf serum. Mitochondrial calcium measurements were carried out using Hela cells infected with the adenovirus (from Sirion biotech) expressing the mitochondrially targeted calcium sensor mitochondrial mutated aequorin (Montero et al., 2004). […] Luminescence was measured at the FLIPR Tetra Aequorin (Molecular Devices). […] Calibration of the luminescence data into calcium concentration was carried out using an algorithm, as described previously (Alvarez & Montero, 2002). Custom module analysis based on Excel (Microsoft) and GraphPad Prism 7.02 (Graph Pad) software was used for quantification.
To validate the effect of the pro-inflammatory cytokine Interleukin-1β as an osteoarthritis-mimetic in a chondrocyte cellular model and to test the effect of the mitochondrial calcium uniporter (MCU) ablation on chondrocyte function, the inventors measured chondrocyte function and mitochondrial function in SW1353 cells. […]

IL-1β: pro-inflammatory cytokine Interleukin-1β used as an osteoarthritis-mimetic in SW1353 chondrocytes
ratio fluorescence (590/525 nm) of mitochondrial membrane potential sensor JC10 [1]: significantly decreases
collagen-IIα1 content [2]: strongly decreased
expression of MMP3 [2]: increased
expression of MMP13 [2]: increased
Annexin-V positive cells (cell death) [3]: significantly increased
mitochondrial Ca2+ rise stimulated by agonist (histamine) [4]: decrease
